The source of these data is US20190343926A1 (priority 2017, published 2019).

The conditions of series [1]: cited from earlier work.
For series [2] the following is noted: 0.25 mU/kg/min continuous IV insulin infusion; cited from earlier work.
For series [3] the following is noted: 35 mU/kg IV every six minutes, ten bursts.

Consider insulin, for which the “drop in glucose levels” value in series [1] (40 mU/kg IV insulin over 3 minutes, over about 30 minutes) was “almost half”. Moreover, the “time for blood insulin to drop from 1000 to 500” value in series [1] (40 mU/kg IV over 3 minutes) is roughly 3 min. Moreover, in series [2], the “glucose decrease at steady state” value is reported as “about 25%”. The “burst at which steady state (Cmax and Cmin bands) is reached” value in series [3] is listed as “fourth burst”.
